Data on 2 compounds can be found in patent US20090186838A1, “Amphotericin Derivatives” (Eidgenössische Technische Hochschule Zürich, priority 2006, published 2009).

In brackets after ≈: the same amount, converted by molar mass. Several values for one entry are separate records, joined by “and”; a condition that tells them apart may be missing. Identical values can stand only once. Like-named read-outs stand apart in the source and are kept apart here.

In one data set the test system is DSY-562 C. glabrata CI. The data set can be described thus: MIC determination in Candida strain DSY-562. It counts as cell-based. As for the experimental part:
(§1) In Vitro Antifungal Activity. MIC values for various strains were determined in accordance with the standard protocol from the National Committee of Clinical Laboratory Standards but using YEPD liquid medium instead of RPMI-1640 medium (National Committee of Clinical Laboratory Standards (Reference Method for Broth Dilution Antifungal Susceptibility Testing of Yeast, M27-A2, Approved Standard-Second Edition, Volume 22, Number 15, 1995). AmB was used as a reference. The strains were cultivated overnight in 5 mL YEPD liquid medium at 30 to 37° C. (30° C. for the strain BY4741; 37° C. for the strain DSY1764) with constant shaking. The saturated cultures were diluted to an ODB600 of 0.1 (3×10P^7 cells/mL). Using 24 wells plate, each well was prepared by adding 1% (12 μL) of DMSO solution of the tested polyene macrolide with 1% (12 μL) yeast cells solution and completed with YEPD (1.176 mL). The plates were sealed with Parafilm and then incubated for 18 to 36 hours at 30 to 37° C. (18 hours at 30° C. for the strain BY4741; 36 hours at 37° C. for the strain DSY1764). The optical density was read at 600 nm using 1.5 mL cuvettes. The MIC value was defined as the drug concentration needed to inhibit growth, less than 5% compared to a drug-free culture.
(§2) MIC values of the polyene macrolides 3, 9 and 10 (Diamine-AmB and its ester and diamide derivative, respectively) in various Candida strains including an AmB-resistant strain C. albicans (DSY1764, with the genotype erg3AΔ::hisG/erg3BΔ::hisG erg11Δ::hisG/erg11Δ::hisG-URA3-hisG) were determined.

Another data set in a line: Solubility assay. It counts as physicochemical. Particulars: DMSO stock added to PBS buffer solution pH 7.2, precipitation point by light scattering at 600 nm. As to the method: Solubility assay. The solubility assay was performed according to Lipinski, C. A. et al Advances Drug Delivery Reviews 2001, 46, 3-26. Typically, a compound of the invention was dissolved in DMSO at a concentration of 10 μg/μl. The so obtained solution was added in […] at 1 min intervals to 2.5 ml PBS buffer solution pH 7.2. These additions correspond to solubility increments of 5 μg/ml to a top value of 65 μg/ml. A total of 14 additions were made and each time increased UV absorbance from light scattering was measured at 600 nm. The precipitation point was calculated from a bilinear curve fit to the Absorbance (y axis) versus μl of DMSO (x axis) plot.
The solubility of the polyene macrolides of the invention in water was tested following the above described protocol. Clearly, all conjugates were more soluble in water then AmB.

Another data set has as its system DSY-565 C. glabrata CI. Description: MIC determination in Candida strain DSY-565. It counts as cell-based. As to the method: as §1, §2
Data set [1] relates to DSY-654 C. albican mutant cdr1/2. The data set can be described thus: MIC determination in Candida strain DSY-654. It counts as cell-based, Candida albicans. Particulars: DSY-654 C. albican mutant cdr1/2. As to the method:
as §1, §2

In the next data set the test system is human erythrocytes. The data set can be described thus: Hemolytic assay (EH50). It counts as cell-based. The settings on record: for EH50: concentration that led to 50% hemolysis of human erythrocytes, one hour at 37° C. As for the experimental part: Hemolytic Assay. The hemotoxicity of the polyene macrolide derivatives of the invention was determined by measuring the toxicity towards human erythrocytes (EH50 value) using an established assay (Kinsky, S. C. et al., Biochem. Biophys. Res. Comm. 1962, 9, 503). Human blood, anticoagulated with citrate or EDTA, was centrifuged (2000×g) at 4° C. for 10 minutes. The pellets were washed three times with PBS buffer (pH 7.2 with 2 g/L glucose) and then diluted to a concentration of 4% (4×10^8 cells/mL). All experiments were done in triplo and the total volume for the hemolysis tubes was 1.4 ml. The solutions were prepared by adding 1% (14 μL) of DMSO solution of the tested compound with […] of PBS buffer and completed with 750 μL of 4% erythrocytes. After one hour incubation at 37° C., the samples were centrifuged (1500×g) at 4° C. for 5 min and the absorbance of the supernatant was measured at 560 nm. The concentration that led to 50% hemolysis (EH50) was intrapolated graphically. The value for the 100% hemolysis was obtained by the treatment with 100 μM of AmB.
The toxicity of AmB (1a) and the polyene macrolides 3, 9 and 10 towards human erythrocytes was examined using the above described hemolysis assay (Table 3).

Data set [2] deals with DSY-1751 C. albican mutant erg3. The data set can be described thus: MIC determination in Candida strain DSY-1751. It counts as cell-based, Candida albicans. The settings on record: DSY-1751 C. albican mutant erg3. As to the method: as §1, §2
Another data set deals with CAF2-1 C. albican wt. Description: MIC determination in Candida strain CAF2-1. It counts as cell-based, Candida albicans. As for the experimental part:
as §1, §2

Data set [3] deals with DSY-1764 C. albican mutant erg3/11 (AmB-resistant strain). The data set can be described thus: MIC determination in AmB-resistant Candida strain DSY-1764. Format: cell-based, Candida albicans. As for the experimental part: as §1, §2
Another data set concerns DSY-294 C. albican CI. The data set can be described thus: MIC determination in Candida strain DSY-294. It counts as cell-based, Candida albicans. As to the method:
as §1, §2

Data set [4] concerns Saccharomyces cerevisiae wild type BY4741. The data set can be described thus: MIC determination in Saccharomyces cerevisiae wild type BY4741. Format: cell-based. Particulars: for MIC: read-out: MIC. As for the experimental part:
as §1
MIC values of various polyene macrolides of the invention in Saccharomyces cerevisiae wild type BY4741, a derivative of S288C, (with AmB as a reference) were determined as described hereinabove.
Based on the remarkable performance observed with the Diamine-AmB conjugate similar modifications of the aminosugar moiety were made on other polyene macrolides, such as for example Nystatin (1b) and Pimaricin (1c). The antifungal activity of these nystatin and pimaricin conjugates bearing two aminopropyl side chains was measured using Saccharomyces cerevisiae wild type BY4741.

The next data set relates to DSY-296 C. albican CI. The data set can be described thus: MIC determination in Candida strain DSY-296. It counts as cell-based, Candida albicans. The settings on record: DSY-296 C. albican CI. As for the experimental part: as §1, §2
Data set [5] is described as follows: K+ efflux assay, cholesterol containing vesicles. Particulars: lower concentration, 0.1 μM (FIG. 3a,c,e,g). As to the method: (§3) FIG. 3. K^+ efflux from vesicles (LUVET100) prepared from […] (POPC) (solid line) or POPC with sterols (dotted line) for ergosterol and (broken line) for cholesterol caused by AmB (1a) (FIGS. 3a,b) and AmB diamine 3 (FIG. 3c,d), AmB diamine ester 9 (FIG. 3e,f) and AmB diamine amide 10 (FIG. 3g,h), added in DMSO to a suspension of vesicles to give final concentrations of 0.1 μM (FIG. 3a,c,e,g) and 1.0 μM (FIG. 3b,d,f,h).
K+ efflux assay. The K^+ efflux measurements were made following a previously described procedure (Zumbuehl, A. et al., Angew. Chem. Int. Ed. 2004, 43, 5181-5185; Zumbuehl, A. et al., Org. Lett. 2004, 6, 3683-3686). The appropriate liposome suspensions were prepared using POPC, cholesterol and ergosterol. Then the liposomes were sized by extrusion through two 400 nm, 200 nm, and finally 100 nm pore size membrane. The resultant “100 nm” unilamellar liposomes were dialyzed against 600 mL of 150 mM NaCl, 5 mM HEPES (pH 7.4) buffer. After, the suspension was diluted with 150 mM NaCl, 5 mM HEPES (pH 7.4) buffer to 1 mM overall lipid concentration (phospholipids+sterols). For each efflux measurement 10 mL of this liposome suspension was placed in a small beaker. Potentiometric measurements were performed with a 16-channel electrode monitor in magnetically stirred solutions at ambient temperature. The reference electrode was a Metrohm double junction Ag/AgCl reference electrode with 3 M KCl as reference electrolyte and 1 M LiOAc as bridge electrolyte. After recording the amphotericin-induced potassium efflux, liposomes were lysed by adding sodium cholate (172 mg). The resulting reading (taken after 0.5 h) was used to quantify the 100% K+-release.
As described hereinbefore differential interaction between ergosterol found in fungal membranes and cholesterol in mammalian cells is considered the basis for the selectivity of AmB (1a) as an antifungal agent. The preferential stabilization of ion channel formation in the membrane by ergosterol ultimately results in electrolyte leakage which can be conveniently measured by K^+ efflux from sterol containing vesicles. To assess the interaction of the polyene macrolide derivatives of the invention with sterols, derivatives 3, 9 and 10 were examined in their ability to lead to K^+ efflux from large unilamellar vesicles (LUV) prepared from POPC (1-palmitoyl-2-oleoyl-sn-glycero-3-phosphocholine) admixed with sterols, mimicking conditions in natural biomembranes (FIG. 3). At high concentration (FIG. 3b,d,f,h), all compounds rapidly induce complete K^+ efflux from vesicles containing ergosterol (dotted line). […] This differentiation between ergosterol and cholesterol is consistent with the observation of reduced hemotoxicity of 3, 9 and 10.

A short description of data set [6]: K+ efflux assay, ergosterol containing vesicles. Particulars: lower concentration, 0.1 μM (FIG. 3a,c,e,g). As to the method: as §3
K+ efflux assay. The K^+ efflux measurements were made following a previously described procedure (Zumbuehl, A. et al., Angew. Chem. Int. Ed. 2004, 43, 5181-5185; Zumbuehl, A. et al., Org. Lett. 2004, 6, 3683-3686). The appropriate liposome suspensions were prepared using POPC, cholesterol and ergosterol. Then the liposomes were sized by extrusion through two 400 nm, 200 nm, and finally 100 nm pore size membrane. The resultant “100 nm” unilamellar liposomes were dialyzed against 600 mL of 150 mM NaCl, 5 mM HEPES (pH 7.4) buffer. After, the suspension was diluted with 150 mM NaCl, 5 mM HEPES (pH 7.4) buffer to 1 mM overall lipid concentration (phospholipids+sterols). For each efflux measurement 10 mL of this liposome suspension was placed in a small beaker. Potentiometric measurements were performed with a 16-channel electrode monitor in magnetically stirred solutions at ambient temperature. The reference electrode was a Metrohm double junction Ag/AgCl reference electrode with 3 M KCl as reference electrolyte and 1 M LiOAc as bridge electrolyte. […] The resulting reading (taken after 0.5 h) was used to quantify the 100% K+-release.
As described hereinbefore differential interaction between ergosterol found in fungal membranes and cholesterol in mammalian cells is considered the basis for the selectivity of AmB (1a) as an antifungal agent. The preferential stabilization of ion channel formation in the membrane by ergosterol ultimately results in electrolyte leakage which can be conveniently measured by K^+ efflux from sterol containing vesicles. […]

The mark [7] stands for this setting: Saccharomyces cerevisiae wild type BY4741, YEPD liquid medium, 18 hours at 30° C.

For the compound `C[C@@H]1[C@H](O)[C@@H](C)/C=C/C=C/C=C/C=C/C=C/C=C/C=C/[C@H](O[C@@H]2O[C@H](C)[C@@H](O)[C@H](N)[C@@H]2O)C[C@@H]2O[C@](O)(C[C@@H](O)C[C@@H](O)[C@H](O)CC[C@@H](O)C[C@@H](O)CC(=O)O[C@H]1C)C[C@H](O)[C@H]2C(=O)O` [AmB, Amphotericin B, reference compound], the MIC with DSY-562 C. glabrata CI is 0.50 µM (≈ 0.462 µg/mL); against DSY-565 C. glabrata CI (DSY-565 C. glabrata CI), 0.50 µM (≈ 0.462 µg/mL); in [1], 0.50 µM (≈ 0.462 µg/mL); in [2] it was 0.30 µM (≈ 0.277 µg/mL); in the data set with CAF2-1 C. albican wt, 0.30 µM (≈ 0.277 µg/mL); in [3] (DSY-1764 C. albican mutant erg3/11, AmB-resistant, 36 hours at 37° C.), 50 µM (≈ 46.2 µg/mL). Also, the MIC against DSY-294 C. albican CI was 0.40 µM (≈ 0.37 µg/mL); in data set [4] (setting [7]), 0.3 µM (≈ 0.277 µg/mL); in data set [4] (Table 3, strain not given, values as in Table 1 (S. cerevisiae BY4741)), 0.30 µM (≈ 0.277 µg/mL); in the data set on DSY-296 C. albican CI, 0.40 µM (≈ 0.37 µg/mL). The compound also displayed a Solubility in water in the data set “Solubility assay” of 10 µg/mL (≈ 10.8 µM). This compound had an EH50 with human erythrocytes of 4.0 µM.

Take `C[C@@H]1[C@H](O)[C@@H](C)/C=C/C=C/C=C/C=C/C=C/C=C/C=C/[C@H](O[C@@H]2O[C@H](C)[C@@H](O)[C@H](N(CCCN)CCCN)[C@@H]2O)C[C@@H]2O[C@](O)(C[C@@H](O)C[C@@H](O)[C@H](O)CC[C@@H](O)C[C@@H](O)CC(=O)O[C@H]1C)C[C@H](O)[C@H]2C(=O)O` [compound 3, N,N-Di-(3-aminopropyl)-AmB]: the MIC was 0.2 µM (≈ 0.208 µg/mL) with DSY-562 C. glabrata CI (Nakaseomyces glabratus); 0.2 µM (≈ 0.208 µg/mL) in the data set on DSY-565 C. glabrata CI (Nakaseomyces glabratus); 0.1 µM (≈ 0.104 µg/mL) in the data set with CAF2-1 C. albican wt (Candida albicans); 1 µM (≈ 1.04 µg/mL) in data set [3] (Candida albicans, 36 h); 0.2 µM (≈ 0.208 µg/mL) in the data set with DSY-294 C. albican CI (Candida albicans); 0.02 µM and 0.020 µM in data set [4] (setting [7]). Moreover, the MIC in data set [4] (Saccharomyces cerevisiae, Table 3, strain not given, values as in Table 1 (S. cerevisiae BY4741)) came out at 0.02 µM (≈ 0.0208 µg/mL). The solubility in “Solubility assay” (PBS buffer, pH 7.2, aqueous buffer, kinetic from dmso stock, read-out: Solubility in water) came out at 12 µg/mL (≈ 11.6 µM). Besides, the EH50 in the data set with human erythrocytes turned out to be 10 µM. For the same compound, in the data set with human erythrocytes (human erythrocytes, relative to AmB (1a)), the “times less toxic than AmB (EH50)” value worked out at 2.5 times. Besides, the “K+ efflux with cholesterol containing vesicles” value in data set [5] was “indistinguishable from background”. Besides, the “times more active than AmB (MIC)” value in data set [4] (Saccharomyces cerevisiae wild type BY4741, relative to AmB) is recorded as 15 times. Moreover, in data set [6], the “K+ efflux with ergosterol containing vesicles” value is reported as “observed exclusively with the ergosterol containing vesicles”.

A word on the MIC: it is the lowest concentration that inhibits growth of the organism. Broadly, the solubility is how much of the substance goes into solution per volume.
